Reference: patent US8778974B2, “Trisubstituted 1,2,4 triazoles” (Janssen Pharmaceutica NV, priority 2008, dated 2014)

Legend:
[1] = target: T1, hα7-wt nAChR-expressing GH4Cl cells (Homo sapiens, UniProt P36544); test: Patch-clamp current recording (whole-cell), potentiation of choline 1 mM response, PAM type; assay type: cell-based; set-up: key to Pam type: Type 0 compounds minimally enhance the effect size of the current elicited by 1 mM choline.; Type 1 compounds enhance the effect size of the current elicited by 1 mM choline but minimally alter the kinetics of the receptor.; Type 2 compounds enhance the effect size of the current elicited by 1 mM choline while reducing the rate and/or the extent of desensitization.; Type 3 compounds enhance the effect size of the current elicited by 1 mM choline. When tested at higher concentrations up to 10 μM they completely inhibit desensitization, in particular a 1 mM choline application of 250 milliseconds.; Type 4 compounds allow for an initial desensitization of the receptor followed by a re-opening of the receptor during agonist application; settings: for EC50: according to Ex. D.2, "<5" = no top plateau reached at maximal concentration, read-out: Potency (pEC50) (converted); for Pam type: patch-clamp current recording, 1 mM choline
T1 construct: expressed in transfected cells
T1 sequence (P36544 23-502): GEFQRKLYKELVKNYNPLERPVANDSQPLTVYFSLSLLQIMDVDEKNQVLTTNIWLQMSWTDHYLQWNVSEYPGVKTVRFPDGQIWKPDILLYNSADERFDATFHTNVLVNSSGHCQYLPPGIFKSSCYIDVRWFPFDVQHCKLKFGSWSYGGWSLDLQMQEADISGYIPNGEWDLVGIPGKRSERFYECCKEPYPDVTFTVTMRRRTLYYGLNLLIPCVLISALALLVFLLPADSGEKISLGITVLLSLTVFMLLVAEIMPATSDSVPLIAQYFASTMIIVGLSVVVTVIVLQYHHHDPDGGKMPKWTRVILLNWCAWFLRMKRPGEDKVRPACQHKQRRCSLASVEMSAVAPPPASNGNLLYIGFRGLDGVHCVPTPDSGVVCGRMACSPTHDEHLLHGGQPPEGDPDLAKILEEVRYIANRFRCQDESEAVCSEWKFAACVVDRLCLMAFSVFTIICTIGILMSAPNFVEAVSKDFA
Outline: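 PAM type assigned qualitatively from current size and desensitization rate/extent when compound is applied simultaneously with 1 mM choline. Recordings: hα7-wt nAChR GH4Cl cells, whole-cell patch clamp, holding −70 mV, series resistance <15 MΩ with ≥60% compensation, pH 7.3 HEPES solutions, solution switching <100 ms.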

[2] = target: T2, hα7-wt nAChR-expressing cells (Homo sapiens, UniProt P36544); test: Ca2+ flux imaging (FDSS) (Protocol B), PAM activity with choline 100 μM; assay type: cell-based; settings: according to Ex. D.1b; read-out: % Efficacy
T2 construct: expressed in transfected cells; host or cells: hα7-wt nAChR-expressing cells
T2 sequence (P36544 23-502): as above
Method: Ca^2+ Flux Imaging (FDSS) (Protocol B)
• a) Assay buffer • Hanks buffered saline solution (HBSS, Invitrogen, Belgium), supplemented with 10 mM HEPES (Invitrogen, Belgium), CaCl2 to a final concentration of 5 mM, 0.1% Bovine serum albumin (Sigma-Aldrich NV, Belgium). • b) Calcium-sensitive dye—Fluo-4AM • Fluo-4AM (Molecular Probes, USA) was dissolved in DMSO containing 10% Pluronic acid (Molecular Probes, USA) to give a stock solution which was diluted in assay buffer supplemented with 5 mM probenicid (Sigma, Al-drich NV, Belgium) to give a final concentration of 2 μM. • c) 384-well plates • Black 384 well plate black/clear plates, PDL pre-coated (Corning, Incorporated, USA) • d) Calcium flux measurement • A Functional drug screening system (FDSS, Hamamatsu) was used to measure intracellular free-calcium flux signals. Method
Monolayers of hα7-wt nAChR-expressing cells were grown in multi-well plates, in particular black-sided, transparent bottomed 384 well plates coated with poly-D-lysine for 24 hours prior to loading with a fluorescent calcium indicator, in a particular embodiment loading with fluo-4AM for up to 120 minutes.
PAM activity was detected in real time by applying the compounds to be tested to the loaded cells along with a α7 nicotinic receptor agonist during constant monitoring of cellular fluorescence in a FDSS. Compounds giving peak fluorescent responses greater than the response due to agonist alone, were considered to be α7 nAChR PAM's. In a particular embodiment, the α7 nicotinic receptor agonist was choline, a more particular embodiment choline applied at a sub-maximal concentration of 100 μM. In a further setting of the present invention the compounds to be tested were applied prior to the α7 nicotinic receptor agonist, in a particular embodiment up to 10 minutes prior to the agonist.
A control response to choline was calculated on each plate from the difference in peak in fluorescence in wells receiving either choline or assay buffer alone. Compounds of the present invention were tested at a concentration range from 0.01 μM to 30 μM. Compounds were considered to have an interesting activity when they potentiated the choline signal at least with 500% when tested at a concentration of 30 μM (the efficacy of 100 μM choline was defined as 100% in the absence of a PAM). The compounds also have a potentiating effect on the response to choline when measured by whole-cell patch clamp electrophysiology in GH4Cl cells stably over-expressing the human wild-type α7 receptor.

melting point | Emax [2] | SMILES | EC50 [1] | Pam type [1]
177.7 °C | – | Cc1cc(-n2nc(Nc3cc(F)c(F)cc3F)nc2C[C@H](C)O)cc(C)n1 [E194] | 5010 nM | –
151.9 °C | – | CC[C@@H](O)Cc1nc(Nc2cc(OC)cc(C(F)(F)F)c2)nn1-c1ccc(C)nc1 [E195] | 3630 nM | –
110.4 °C | – | CC[C@H](O)Cc1nc(Nc2cccc(Cl)c2)nn1-c1ccc(C)nc1 [E196] | 912 nM | 2
225.1 °C | – | Cc1cc(-n2nc(Nc3ccc(F)c(F)c3)nc2C[C@@H](C)O)cc(C)n1 [E197] | 1780 nM | 2
210.3 °C | 808% | Cc1cc(-n2nc(Nc3ccc(F)c(F)c3)nc2C[C@@H](C)O)ccn1 [E198] | 1860 nM | 2
224.4 °C | – | Cc1cc(-n2nc(Nc3ccc(F)c(C(F)(F)F)c3)nc2C[C@@H](C)O)cc(C)n1 [E199] | 1070 nM | 2
280.9 °C | – | CCNC(=O)Cc1nc(Nc2ccc3c(c2)OC(F)(F)O3)nn1-c1cc(C)nc(C)c1 [E200, 3-[(2,2-difluoro-1,3-benzodioxol-5-yl)amino]-1-(2,6-dimethyl-4-pyridinyl)-N-ethyl-1H-1,2,4-triazole-5-acetamide] | 407 nM | 2
270.3 °C | – | Cc1cc(-n2nc(Nc3ccc4c(c3)OC(F)(F)O4)nc2CC(=O)NCC2CC2)cc(C)n1 [E201] | 302 nM | 2
133.2 °C | – | CC[C@H](O)Cc1nc(Nc2ccc(OC)cc2)nn1-c1ccnc(C)c1 [E202] | 2750 nM | 2
200.2 °C | – | Cc1cc(-n2nc(Nc3cc(F)c(F)c(F)c3)nc2C[C@H](C)O)ccn1 [E207] | 1320 nM | 2
199.6 °C | – | Cc1cc(-n2nc(Nc3cc(F)c(F)c(F)c3)nc2C[C@H](C)O)cc(C)n1 [E208] | 741 nM | 2
241.5 °C | – | CCNC(=O)Cc1nc(Nc2ccc(F)c(F)c2F)nn1-c1cc(C)nc(C)c1 [E210] | 417 nM | 2
237.3 °C | – | Cc1cc(-n2nc(Nc3ccc(F)c(F)c3F)nc2CC(=O)NC2CC2)cc(C)n1 [E211] | 372 nM | 2
249.4 °C | – | Cc1cc(-n2nc(Nc3ccc(F)c(F)c3F)nc2CC(=O)NC2CCC2)cc(C)n1 [E212] | 251 nM | 2
– | 646% | CC[C@H](O)Cc1nc(Nc2cc(OC)cc(C(F)(F)F)c2)nn1-c1ccnc(C)c1C [E220] | 2040 nM | –
– | 711% | Cc1cc(-n2nc(Nc3ccc(F)c(C(F)(F)F)c3)nc2CC(=O)NC2CC2)cc(C)n1 [E226] | 120 nM | 1
184 °C | – | Cc1cc(-n2nc(Nc3ccc(F)c(C(F)(F)F)c3)nc2CCC(=O)N(C)C)cc(C)n1 [E233] | ~29.5 nM | –
– | 616% | Cc1cc(-n2nc(Nc3cccc(Cl)c3F)nc2CCC(=O)N(C)C)cc(C)n1 [E265] | 37.2 nM | –
244 °C | – | CCNC(=O)C(C)c1nc(Nc2ccc3c(c2)OC(F)(F)O3)nn1-c1cc(C)nc(C)c1 (stereo not drawn) [E275] | 1050 nM | 2
131.4 °C | – | Cc1cc(-n2nc(Nc3ccc(F)c(F)c3F)nc2C[C@H](C)O)ccn1 [E277] | 6310 nM | –

The remaining lines, values behind:

SMILES | melting point | Emax [2] | EC50 [1] | Pam type [1]
C/C=C/c1nc(Nc2ccc(F)c(C(F)(F)F)c2)nn1-c1ccnc(C)c1 [E11, N-[4-Fluoro-3-(trifluoromethyl)phenyl]-1-(2-methyl-4-pyridinyl)-5-[(1E)-1-propenyl]-1H-1,2,4-triazol-3-amine] | 226.3 °C | 341% | 138 nM | –
C[C@H](O)Cc1nc(Nc2ccc(F)c(F)c2)nn1-c1ccc(F)cc1 [E19] | 178 °C | 445% | 3020 nM | –
CNC(=O)CCc1nc(Nc2ccc(F)c(F)c2)nn1-c1ccccc1Cl [E38] | – | 253% | 3090 nM | –
CNC(=O)CCc1nc(Nc2ccc(F)c(F)c2)nn1-c1cccc(Cl)c1 [E39] | – | 674% | 2570 nM | –
CNC(=O)CCc1nc(Nc2ccc(F)c(F)c2)nn1-c1ccc(Cl)cc1 [E40] | 177.3 °C | 495% | 1910 nM | –
CNC(=O)CCc1nc(Nc2ccc(F)c(F)c2)nn1-c1ccc(OC(F)(F)F)cc1 [E47] | – | 698% | 1510 nM | –
CC[C@@H](O)Cc1nc(Nc2cc(OC)cc(C(F)(F)F)c2)nn1-c1cc(C)nc(C)c1 [E128] | 138.8 °C | 994% | 126 nM | 4
Cc1cc(-n2nc(Nc3ccc(F)c(F)c3)nc2C[C@H](C)O)cc(C)n1 [E141] | 225.7 °C | 961% | 1380 nM | 2
Cc1cc(-n2nc(Nc3cccc(Cl)c3F)nc2CC(=O)NC2CC2)c(C)cn1 [E157] | 192.6 °C | 492% | 3800 nM | 2
Cc1cc(-n2nc(Nc3cccc(Cl)c3F)nc2CC(=O)NCC2CC2)c(C)cn1 [E158] | – | 328% | 1380 nM | 1
Cc1cc(-n2nc(Nc3cccc(Cl)c3F)nc2CC(=O)NC2CCC2)c(C)cn1 [E159] | – | 592% | 1740 nM | 1
Cc1cc(-n2nc(Nc3ccc(F)c(F)c3)nc2CC(=O)NC2CCC2)c(C)cn1 [E162] | 244.1 °C | 623% | 2880 nM | 1
Cc1cc(-n2nc(Nc3ccc(F)c(F)c3)nc2CC(=O)NCC2CC2)c(C)cn1 [E166] | 211.2 °C | 589% | 2340 nM | 1
COc1ccc(-n2nc(Nc3cccc(OC(F)(F)F)c3)nc2CCC(=O)N(C)C)cc1 [E183] | – | 718% | 26.9 nM | 1
CC[C@H](O)Cc1nc(Nc2cc(F)c(F)c(F)c2)nn1-c1ccnc(C)c1 [E187, (alphaS)-alpha-ethyl-1-(2-methyl-4-pyridinyl)-3-[(3,4,5-trifluorophenyl)amino]-1H-1,2,4-triazole-5-ethanol] | 177.4 °C | – | 224 nM | 2
CC[C@H](O)Cc1nc(Nc2cc(F)c(F)c(F)c2)nn1-c1cc(C)nc(C)c1 [E188, (alphaS)-1-(2,6-dimethyl-4-pyridinyl)-alpha-ethyl-3-[(3,4,5-trifluorophenyl)amino]-1H-1,2,4-triazole-5-ethanol] | 176.6 °C | – | 224 nM | 2
Cc1cc(-n2nc(Nc3ccc(F)c(F)c3F)nc2C[C@H](C)O)cc(C)n1 [E189, (alphaS)-1-(2,6-dimethyl-4-pyridinyl)-alpha-methyl-3-[(2,3,4-trifluorophenyl)amino]-1H-1,2,4-triazole-5-ethanol] | 138 °C | – | 631 nM | 2
Cc1nccc(-n2nc(Nc3cccc(Cl)c3F)nc2CC(=O)NC2CCC2)c1C [E192] | 187.9 °C | 397% | 1580 nM | 1
Cc1nccc(-n2nc(Nc3cccc(Cl)c3F)nc2CC(=O)NCC2CC2)c1C [E193] | – | 327% | ~3020 nM | –
